Earlier results as cited in paper PMC3212850 (ACS Medicinal Chemistry Letters, 2011).

Test system: cell lines

apratoxin B
activity relative to apratoxin A: reduces activity
